Measured values as given in PubChem BioAssay (NCI).
Where “and” joins values, the source holds several entries; their conditions need not be identical. Equal entries are not always repeated.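 Cultured in 96-well plates, cells were exposed to test compound for 48 hours across five concentrations. GI50 = concentration required for 50% inhibition of growth. TGI marks complete inhibition of growth.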

Tests used:
Experiment in all cases: NCI anticancer screen, dose series, 48 h
U251 CNS = system: U251 CNS
UACC-257 melanoma = system: UACC-257 melanoma
HOP-92 NSCLC = system: HOP-92 NSCLC
HCT-15 colon = system: HCT-15 colon
SK-MEL-5 melanoma = system: SK-MEL-5 melanoma
SK-MEL-2 melanoma = system: SK-MEL-2 melanoma
OVCAR-3 ovarian = system: OVCAR-3 ovarian
M14 melanoma = system: M14 melanoma
786-0 renal = system: 786-0 renal
SK-MEL-28 melanoma = system: SK-MEL-28 melanoma
PC-3 prostate = system: PC-3 prostate
LOX IMVI melanoma = system: LOX IMVI melanoma
IGROV1 ovarian = system: IGROV1 ovarian
HCT-116 colon = system: HCT-116 colon
KM12 colon = system: KM12 colon
RXF 393 renal = system: RXF 393 renal
ACHN renal = system: ACHN renal
SF-295 CNS = system: SF-295 CNS
HL-60(TB) leukemia = system: HL-60(TB) leukemia

| Structure (SMILES) | TGI (U251 CNS) [µM] | TGI (UACC-257 melanoma) [µM] | TGI (HOP-92 NSCLC) [µM] | TGI (HCT-15 colon) [µM] | TGI (SK-MEL-5 melanoma) [µM] | TGI (SK-MEL-2 melanoma) [µM] | TGI (OVCAR-3 ovarian) [µM] | TGI (M14 melanoma) [µM] | TGI (786-0 renal) [µM] | TGI (SK-MEL-28 melanoma) [µM] | TGI (PC-3 prostate) [µM] | TGI (LOX IMVI melanoma) [µM] | TGI (IGROV1 ovarian) [µM] | TGI (HCT-116 colon) [µM] | TGI (KM12 colon) [µM] | TGI (RXF 393 renal) [µM] | TGI (ACHN renal) [µM] | TGI (SF-295 CNS) [µM] | TGI (HL-60(TB) leukemia) [µM] | GI50 (U251 CNS) |
| --- | --- | --- | --- | --- | --- | --- | --- | --- | --- | --- | --- | --- | --- | --- | --- | --- | --- | --- | --- | --- |
| Nc1ccc(-c2nc3ccccc3s2)cc1F | > 100 | > 100 | > 100 | > 100 | 40.9 | 43.4 | 77.6 | > 100 | 50.2 | > 100 | > 100 | > 100 | > 100 | 32.9 | > 100 | > 100 | 74.4 | 94 |  |  |
| CCN1C(=O)C(N=[N+]=[N-])(c2ccccc2)C(=O)c2ccccc21 (stereo unspecified) | > 100 | > 100 | > 100 | > 100 | > 100 | > 100 | > 100 | > 100 | > 100 | > 100 |  | > 100 | > 100 | > 100 | > 100 | > 100 | > 100 | > 100 | > 100 |  |
| COC(=O)C1CCC[C@H]2C(CO)=C(C)C(=O)[C@@H]12 (stereo partly specified) | > 100 | > 100 | > 100 | > 100 | > 100 | > 100 |  | > 100 | > 100 | > 100 |  |  | > 100 | > 100 | > 100 | > 100 | > 100 | > 100 | > 100 |  |
| O=C1NCC2(CCNCC2)N1 | > 100 | > 100 | > 100 | > 100 | > 100 |  |  | > 100 | > 100 | > 100 |  | > 100 | > 100 | > 100 | > 100 | > 100 | > 100 | > 100 | > 100 |  |
| CCOC(=O)/C(=C/c1ccc(Cl)cc1)N(CC)CC | > 100 | > 100 | > 100 | > 100 | > 100 | > 100 |  | > 100 | > 100 | > 100 |  | > 100 | > 100 | > 100 | > 100 |  | > 100 | > 100 | > 100 |  |
| CC1=C(c2ccc(C)cc2)NC(=S)C(C)C(c2ccc(C)cc2)=N1 (stereo unspecified) | > 100 | > 100 |  | > 100 | > 100 |  |  |  | > 100 | > 100 |  | > 100 | > 100 | > 100 | > 100 | 70.9 | > 100 | > 100 | > 100 |  |
| COC(=O)c1cn(CCCCO)nn1 | > 100 | > 100 | > 100 | > 100 | > 100 | > 100 |  |  | > 100 | > 100 | > 100 | > 100 | > 100 | > 100 | > 100 | > 100 | > 100 | > 100 |  |  |
| Cc1ccc(S(=O)(=O)c2ccsc2NC(=O)c2ccccc2)cc1 | > 100 | > 100 | > 100 | > 100 | > 100 | > 100 | > 100 | > 100 | > 79.6 | > 100 | > 100 | > 100 | > 100 | > 100 | > 100 |  | > 79.7 | > 100 |  |  |
| Nc1ccc(-c2nc3ccc(Cc4ccc5nc(-c6ccc(N)cc6)oc5c4)cc3o2)cc1 | > 100 | > 100 | > 100 | > 100 |  | > 100 |  | > 100 | > 100 | > 100 | > 100 | > 100 |  | > 100 | > 100 | > 100 | > 100 | > 100 |  |  |
| Nc1ccn(CC(CO)CC(c2ccccc2)P(=O)(O)O)c(=O)n1 (stereo unspecified) | > 100 | > 100 | > 100 | > 100 | > 100 | > 100 | > 100 | > 100 | > 100 | > 100 |  | > 100 | > 100 | > 100 | > 100 | > 100 | > 100 | > 100 | > 100 | 28.2 µM and > 100 µM |
| COc1cccc(N2C(=O)[C@H]3[C@H]4CC(C(C)(C)C)CC[C@H]4c4c([nH]c5ccccc45)[C@H]3C2=O)c1 (stereo partly specified) |  | 48.6 |  | > 100 | 35.6 | 40.3 | 36.2 | 30.7 | 30.1 | 35.6 |  | 32.7 | 39.1 |  | > 100 | 42 |  | 29.2 | > 100 |  |
| Cc1ccc(Cc2nn(C)c(=O)n2-n2cccc2)cc1 | > 100 | > 100 |  | > 100 | > 100 | > 100 | > 100 | > 100 | > 100 | > 100 | > 100 | > 100 | > 100 | > 100 | > 100 | > 100 | > 100 | > 100 |  |  |
| Cc1ccc(C(O)/C(=N/N)c2nc3ccc([N+](=O)[O-])cc3[nH]c2=O)cc1 (stereo unspecified) | > 100 | > 100 | > 100 | > 100 | > 100 | > 100 | > 100 | > 100 | > 100 | > 100 |  | > 100 | > 100 | > 100 | > 100 | > 100 | > 100 | > 100 | > 100 |  |
| CCOc1ccc(N=Nc2c(-c3ccccc3)nn(C(=O)CC(=O)Nc3cccc(C)c3)c2-c2ccccc2)cc1 | > 100 | > 100 | > 100 |  | > 100 | > 100 | > 100 | > 100 | > 100 | > 100 |  | > 100 | > 100 | > 100 | > 100 | > 100 | > 100 | > 100 | > 100 |  |
| CCC(C)C(NC(=O)c1c2ccccc2nc2ccccc12)C(=O)O (stereo unspecified) | > 100 | > 100 | > 100 | > 100 | > 100 | > 100 | > 100 | > 100 | > 100 | > 100 | > 100 | > 100 | > 100 | > 100 | > 100 |  | > 100 | > 100 |  |  |
| CSC1CC2C(CC1(C)SC)C2(C)C (stereo unspecified) | > 100 | 86.9 | 53.9 | > 100 | 78.9 | 56.8 | > 100 | > 100 | > 100 | > 100 |  | > 100 | > 100 |  | > 100 | > 100 | > 100 | > 100 | 58 |  |
| O=c1[nH]c(=O)n(C2OC(CO)C(O)C2O)cc1OCc1ccccc1 (stereo unspecified) | > 72.2 | > 100 | > 100 | > 77.7 | > 100 | > 100 | > 100 | > 100 | > 100 | > 100 |  | > 31.6 | > 100 | > 83.2 | > 100 | > 83.5 | > 100 | > 100 | > 68.6 |  |
| COc1cc2c(cc1OC)C1(c3ccccc3)ON=C(c3ccccc3)N1CS2 (stereo unspecified) | > 100 | > 100 | > 100 | > 100 | > 100 | > 100 | > 100 | > 100 | > 100 | > 100 |  | > 100 | > 100 | > 100 | > 100 | > 100 | > 100 | > 100 | > 100 |  |
| O=c1nc(-c2ccccc2)scc1-c1ccccc1 | > 100 | > 100 | > 100 | > 100 | > 100 | > 100 | > 100 | > 100 | > 100 | > 100 |  |  | > 100 | > 100 | > 100 | > 100 | > 100 | > 100 | > 100 |  |
| CC(=O)O[C@]12CCCCC1C1(O)C(O)CCCC[C@H]12 (stereo partly specified) | > 100 | > 100 |  | > 100 | > 100 | > 100 |  | > 100 | > 100 | > 100 |  | > 100 |  | > 100 | > 100 | > 100 | > 100 | > 100 | > 100 |  |
| CCCCC1=CC1(C#N)[N+](=O)[O-] (stereo unspecified) | > 100 | > 100 | > 100 | > 100 | > 100 |  | > 100 | > 100 | > 100 | > 100 | > 100 | > 100 | > 100 | > 100 | > 100 | > 100 | > 100 | > 100 |  |  |
| CCCCCCCCCCCCCCC[C@@H](O)C[N+](C)(C)CCO | 2.59 | 49.2 | > 39.7 | 14 | 7.07 | 44.3 | > 93.6 | 41.1 | 3.07 | 52.5 |  |  | 2.11 | > 62.1 | 1.4 |  | 24.1 | 10.1 | 0.36 |  |
